Assay results published in publication PMC13095444, “Discovery of RGS2-FBXO44 interaction inhibitors using a cell-based NanoBit assay” (Molecular Pharmacology, 2025).

T1: RGS2-FBXO44 interaction (Homo sapiens, UniProt P41220)
T1 construct: expressed in transfected cells
T1 sequence (P41220 1-211): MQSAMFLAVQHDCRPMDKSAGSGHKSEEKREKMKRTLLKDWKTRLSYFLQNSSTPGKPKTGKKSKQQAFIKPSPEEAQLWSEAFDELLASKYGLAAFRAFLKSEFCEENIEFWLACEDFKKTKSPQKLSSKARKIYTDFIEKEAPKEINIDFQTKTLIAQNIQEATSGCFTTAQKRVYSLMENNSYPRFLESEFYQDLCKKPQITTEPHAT

T2: RGS2-SmBiT (UniProt P41220 1-211)
T2 construct: Regulator of G protein signaling 2 (RGS2); cloned in-house into pBiT2.3-C[CMV/SmBiT/Blast]; The linker between RGS2 and SmBiT is not described; In the BiBiT construct RGS2-SmBiT and LgBiT-FBXO44 are expressed from one plasmid with a bidirectional CMV promoter; also called C-terminally tagged RGS2; source: HEK-293T, transiently transfected, in live cells; not shown: SmBiT, C-terminal, kept
T2 sequence (looked up): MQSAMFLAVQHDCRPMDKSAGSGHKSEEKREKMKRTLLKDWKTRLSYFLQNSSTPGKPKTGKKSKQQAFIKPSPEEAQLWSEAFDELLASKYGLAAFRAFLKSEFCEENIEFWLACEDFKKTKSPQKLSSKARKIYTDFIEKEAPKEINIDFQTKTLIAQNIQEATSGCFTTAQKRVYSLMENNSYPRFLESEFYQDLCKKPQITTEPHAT


Tests used:
RGS2 protein levels = assay: PathHunter ProLabel assay of RGS2 protein levels in HEK-293T-RGS2-PL cells; format: cell-based, Human; details: 100 μM compound overnight (16–18 hours)
Protocol: The PathHunter ProLabel assay was run as described previously ([Sjögren et al, 2012]; [Raveh et al, 2014]; [Sjögren et al, 2015]). Briefly, HEK-293T-RGS2-PL cells were plated at 10,000 cells per well in a white, tissue culture-treated 384-well plate (Perkin Elmer) in DMEM without phenol red (#21063; Gibco) and 0.1% BSA. The cells were allowed to attach for 4 hours, followed by treatment with DMSO, 10 μM MG-132, or 100 μM of compounds. Prior to the detection of RGS2 protein levels by the ProLabel assay, a fluorescent viability assay was performed in the same well, as described above. PathHunter ProLabel reagents (DiscoveRx) were prepared according to the manufacturer’s directions and added to the plate, followed by incubation at room temperature for 1 hour. Luminescence corresponding to RGS2-PL protein levels was detected using a Synergy Neo2 multimode plate reader.
Compounds that inhibit the interaction between RGS2 and FBXO44 would protect RGS2 from proteasomal degradation and result in increased RGS2 protein levels. We therefore next assayed our 20 hits for their ability to increase RGS2 protein levels. We first performed western blot analysis of HEK-293T cells transfected with RGS2-HA and FLAG-FBXO44 and treated overnight (16–18 hours) with 100 μM compound, using proteasome inhibitor MG-132 as a positive control (10 μM). […] Although somewhat disappointing, given the limited sensitivity of western blot, we opted to also test the compounds using an alternate assay paradigm. Specifically, we used the PathHunter ProLabel assay (DiscoveRx), an enzyme complementation assay in which a protein of interest is tagged with a 4 kDa part of β-galactosidase (ProLabel; PL). The chemiluminescent signal in the assay correlates with relative levels of the PL-tagged target protein. We previously developed a stable HEK-293T-RGS2-PL cell line that was used in several high-throughput screening campaigns ([Sjögren et al, 2012]; [Raveh et al, 2014]; [Sjögren et al, 2015]). The PathHunter ProLabel assay offers a more quantitative measurement of protein levels, with a larger dynamic range than a western blot. We treated HEK-293T-RGS2-PL cells overnight (16–18 hours) with 100 μM compound and used 10 μM MG-132 as a positive control.
As a further validation of the action of compound 10, we assessed whether the ability to increase RGS2 protein levels was dependent on FBXO44 using the PathHunter ProLabel assay. HEK-293T-RGS2-PL cells transfected with either nontargeting (NT) or FBXO44-targeting siRNA were treated overnight (16–18 hours) with vehicle or compound 10 (100 μM). […] Thus, compound 10 increases RGS2 protein levels through a mechanism that is dependent on FBXO44.

[1] = test system: HEK-293T-RGS2-FBXO44 NanoBit cells; assay: Cell viability assay (GF-AFC fluorescence) multiplexed with NanoBit; format: cell-based, Human; details: for Cell toxicity (in words) / Viability (% of Control): 100 μM; for Viability (% of Control): 16–18 hours
Protocol: The cells were plated in DMEM without phenol red (Gibco, #21063), 0.1% BSA in a white, tissue culture-treated 384-well plate (Perkin Elmer) at 15,000 cells/well, unless indicated otherwise, and allowed to attach. The plate was centrifuged at 212 × g for 30 seconds to aid in even cell adherence. Compound treatments were initiated 4–5 hours after plating. Following indicated treatment times, media was removed from the plate using BioTek ELx405 plate washer. Additionally, 10 μL of Hank’s Balanced Salt solution (HBSS) with 0.1% BSA was added to each well, followed by 5 μL of glycyl-phenylalanyl-aminofluorocoumarin (GF-AFC; MP Biomedicals) diluted 1:1000 in 100 mM HEPES. Plates were then centrifuged at 212 × g for 30 seconds and then incubated at 37 °C for 30 minutes. Fluorescence was detected on a Synergy Neo2 multimode plate reader (BioTek/Agilent).
Our primary assay using the HEK-293T RGS2-FBXO44 NanoBit cell line was extensively optimized to ensure maximum quality for screening. Coupling a fluorescent cell viability assay with our screen would allow us to rule out cytotoxic compounds while also hopefully reducing outliers from pipetting errors while plating cells. Thus, we multiplexed our NanoBit assay with cell viability using a cell-permeable fluorogenic protease substrate (glycyl-phenylalanyl-aminofluorocoumarin; GF-AFC; [Niles et al, 2007]), which can be combined with a luminescent readout without interfering with the luciferase signal. We previously utilized a similar multiplexing strategy in several screens ([Sjögren et al, 2012]; [Raveh et al, 2014]; [Sjögren et al, 2015]). We assessed and optimized treatment conditions (time, temperature, and reagent volume), cell density, buffer composition, and DMSO tolerance. In addition to the supplied proprietary LCS buffer (Promega), we also tested DMEM, 0.1% BSA, PBS, and HBSS (Supplemental Fig. 1A–C). […] The luminescent signal was stable up to 45 minutes after reagent addition, and we chose to run subsequent assays using 20 minutes of incubation time (Supplemental Fig. 1E). We also observed no effect on either viability or luminescence signal at DMSO concentrations <1% (Data not shown).
(§1) HEK-293T-RGS2-FBXO44 NanoBit cells were treated for 16–18 hours with compound at 100 μM. This relatively high concentration was chosen because of the challenging nature of our assay (intracellular PPI inhibition). Parental HEK-293T cells were used as a negative control. […] Based on these criteria, 97 compounds were identified as hits from our primary screen (6.1% initial hit rate). To confirm hits, the same assay was repeated in triplicate, which delivered 34 compounds that reached the threshold for inhibition in at least 2 replicates with <25% cell toxicity (Fig. 2C; Supplemental Table 1), thus rendering a final hit rate of 2.1%.

RGS2-FBXO44 interaction = biological target: T1, RGS2-FBXO44 interaction; assay: RGS2-FBXO44 NanoBit assay (HEK-293T RGS2-SmBiT/LgBiT-FBXO44 stable clone #6); format: cell-based; details: for % Inhibition @ 100 μM of RGS2-FBXO44 NanoBit signal: 16–18 hours, fresh powder, luminescence normalized to viability, vs nontreated cells; for IC50: concentrations 500 to 0.01 μM, RLU normalized to viability (RFU), read-out: IC50 (μM), inhibition of RGS2-FBXO44 NanoBit signal
Protocol: Nano-Glo Live Cell Substrate (LCS) was diluted 1:50 in HBSS to form a 2× stock, and then, 15 μL was added to each well. Plates were shaken on an orbital shaker at 500 rpm for 5 minutes protected from light and then spun down at 1000 rpm for 30 seconds. Plates were incubated at room temperature for 20 minutes, and then, luminescence was detected on a Synergy Neo2 multimode plate reader.
as §1
Fresh powders of 20 compounds were purchased and reassayed for their ability to inhibit the RGS2-FBXO44 NanoBit signal, using the same assay paradigm as in the primary screen (Fig. 3; Table 1). […] Nevertheless, all compounds were confirmed to inhibit the RGS2-FBXO44 NanoBit signal at this high concentration.
We next assessed the concentration-dependent effect of our 20 hits. Compounds were assayed at concentrations ranging from 500 to 0.01 μM. NanoBit luminescence (relative luminescence units) was normalized to viability (RFU) and presented as a percentage of untreated cells.

RGS2-SmBiT = biological target: T2, RGS2-SmBiT; assay: split reporter (BiFC, NanoBiT); NanoBiT luminescence in live, transiently transfected HEK-293T cells; every combination of RGS2 and FBXO44 NanoBiT constructs; 15,000 cells/well, 2 hours incubation; details: partners not purified

Molecule	RGS2 protein levels (PathHunter ProLabel) (RGS2 protein levels)	Cell toxicity (in words) [1]	Viability (% of Control) ([1]; fresh powder)	% Inhibition @ 100 μM of RGS2-FBXO44 NanoBit signal (RGS2-FBXO44 interaction)	IC50 (RGS2-FBXO44 interaction)	Cell toxicity at 100 μM ([1]; fresh powder)	fold luminescence signal against the opposite tagging (RGS2-LgBiT with SmBiT-FBXO44) (RGS2-SmBiT)
Cc1cccc(C(=O)N2CCN(c3nc(C)cc(N4CCCCC4)n3)CC2)c1 [Compound 1]	significantly increased RGS2 protein levels	significant toxicity	45.8∗∗∗∗ % of Control	48.9∗∗∗∗ %	58 µM		
CCOc1cc(C)c(C)cc1S(=O)(=O)N1CCN(c2ccccc2)CC1 [Compound 11]			139.6 % of Control	49.6∗∗∗∗ %	29 µM		
CCc1nc(C)cn1S(=O)(=O)c1cc(OC)c(C)cc1C [Compound 20]			44.4∗∗∗∗ % of Control	67.3∗∗∗∗ %	4.4 µM		
Cc1cc(N2CCCC2)nc(N2CCN(C(=O)c3ccccc3C)CC2)n1 [Compound 3]			54.1∗∗∗∗ % of Control	40.6∗∗∗∗ %	78.9 µM		
O=S(=O)(C1CC1)N1CCCCC(c2ccc(Cl)cc2)C1 (stereo not drawn) [Compound 9]			103.6 % of Control	74.5∗∗∗∗ %	9.7 µM		
CCOc1ccc(S(=O)(=O)N2CCCCCC2)cc1C [Compound 8]			80.6∗∗∗∗ % of Control	86.1∗∗∗∗ %	9.2 µM		
CCOc1ccc(S(=O)(=O)N(Cc2cccn2C)C2CC2)cc1F [Compound 6]			116.6 % of Control	36.8∗∗∗∗ %	25.6 µM		
O=C(NCC1(O)CCOc2ccccc21)C1(c2ccc(Cl)cc2)CCCC1 (stereo not drawn) [Compound 12]			116.6 % of Control	32.6∗∗∗∗ %	5.8 µM		
CCCOc1cc(S(=O)(=O)NCC2CCCO2)ccc1Cl (stereo not drawn) [Compound 19]			85.8∗∗ % of Control	74.8∗∗∗∗ %	39.6 µM		
Cc1cc(C)c(C)c(Cn2c(CCNC(=O)CCC(C)O)nc3ccccc32)c1C (stereo not drawn) [Compound 15]			68.5∗∗∗∗ % of Control	50.2∗∗∗∗ %	20.3 µM		
CCOc1ccc(C(=O)Nc2ccc3c(c2)N(C(=O)C(C)C)CCC3)cc1OCC [Compound 5]			120.5 % of Control	44.5∗∗∗∗ %	151 µM		
Cc1nc(N2CCN(C(=O)c3cccc(N(C)C)c3)CC2)cc(C(F)(F)F)n1 [Compound 2]			101.9 % of Control	68.0∗∗∗∗ %	72.2 µM		
CCCCNC(=O)c1nnn(-c2ccccc2)c1C(C)C [Compound 16]			93.7 % of Control	75.8∗∗∗∗ %	54.8 µM		
CCOc1ccc(C(=O)NCc2ccnc(N3CCCCC3)n2)cc1 [Compound 4]			89.5 % of Control	47.2∗∗∗∗ %	38.2 µM		
COC1(CNC(=O)CCc2ccccc2)C2CC3CC(C2)CC1C3 (stereo not drawn) [Compound 14]			93.9 % of Control	70.7∗∗∗∗ %	67.4 µM		
O=C(Cc1ccccc1Cl)N(CCc1cccs1)C1CCOCC1 [Compound 18]			81.5∗∗∗∗ % of Control	51.2∗∗∗∗ %	122 µM		
O=C(N(CCc1ccccc1)Cc1ccccn1)C12CC3CC(CC(C3)C1)C2 [Compound 13]		almost complete cell toxicity	7.5∗∗∗∗ % of Control			< 90%	
CSc1ccccc1C(=O)NCc1cc(C2CC2)n(C2CCCC2)n1 [Compound 17]			69.2∗∗∗∗ % of Control	69.0∗∗∗∗ %	88.1 µM		
Cc1cc(C)c(C)c(S(=O)(=O)N2CCCC2)c1C [Compound 7]			91.7 % of Control	56.5∗∗∗∗ %	42.1 µM		
LgBiT-FBXO44 (natural protein, UniProt Q9H4M3 1-255, looked up, F-box Only Protein 44 (FBXO44); cloned in-house into pBiT1.3-N[CMV/LgBiT/Hygro]; The linker between LgBiT and FBXO44 is not described; also called N-terminally tagged FBXO44; source: HEK-293T, transiently transfected, in live cells; not shown: LgBiT, N-terminal, kept) MAVGNINELPENILLELFTHVPARQLLLNCRLVCSLWRDLIDLVTLWKRKCLREGFITEDWDQPVADWKIFYFLRSLHRNLLHNPCAEEGFEFWSLDVNGGDEWKVEDLSRDQRKEFPNDQVKKYFVTSYYTCLKSQVVDLKAEGYWEELMDTTRPDIEVKDWFAARPDCGSKYQLCVQLLSSAHAPLGTFQPDPATIQQKSDAKWREVSHTFSNYPPGVRYIWFQHGGVDTHYWAGWYGPRVTNSSITIGPPLP							3.5 fold
